Measurements reported in patent US9340493B2, “Hydroxamic acid derivatives useful as antibacterial agents” (Pfizer Inc., priority 2008, dated 2016).
Values after ≈ are worked out from the molar mass of the structure shown.

Legend:
[1] = target: T1, Pseudomonas aeruginosa LpxC enzyme (Pseudomonas aeruginosa, UniProt P47205); assay: IC50 assay, LpxC enzyme from P. aeruginosa; format: biochemical; conditions: 0.5 nM enzyme, 25° C., pH 8.0, 20 min; ** = average of 2-8 assays
T1 construct: made in house; host or cells: E. coli
T1 sequence (P47205 1-303): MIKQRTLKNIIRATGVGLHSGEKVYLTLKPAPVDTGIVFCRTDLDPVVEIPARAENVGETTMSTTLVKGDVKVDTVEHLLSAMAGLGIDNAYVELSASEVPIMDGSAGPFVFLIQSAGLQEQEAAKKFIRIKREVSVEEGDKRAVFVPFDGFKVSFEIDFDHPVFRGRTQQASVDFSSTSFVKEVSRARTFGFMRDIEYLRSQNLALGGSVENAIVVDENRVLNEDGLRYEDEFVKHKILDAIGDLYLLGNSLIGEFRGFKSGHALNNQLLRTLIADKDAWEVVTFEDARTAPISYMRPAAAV
Summary of the method: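 P. aeruginosa LpxC (0.5 nM, expressed in E. coli) reacted with 0.5 uM ³H-acetyl-labelled UDP-3-O-(R-3-hydroxydecanoyl)-GlcNAc in 50 mM sodium phosphate pH 8.0 with 1 mg/ml BSA at 25 °C for 20 min. Charcoal stopped the reaction, and filtrate radioactivity was counted by scintillation after no-enzyme background subtraction.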

P. aeruginosa PAO280 = assay: MIC determination, P. aeruginosa PAO280; format: cell-based; conditions: Pseudomonas aeruginosa, PAO280, read-out: MIC (ug/mL) P. aeruginosa PAO280
Summary of the method: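 Broth dilution MIC per CLSI M7-A7/M100-S18 guidelines. Strain PAO280 lacks efflux pumps MexAB-oprM, MexXY and MexZ.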

P. aeruginosa UI-18 = assay: MIC determination, P. aeruginosa UI-18; format: cell-based; conditions: Pseudomonas aeruginosa, UI18; wild-type; * = arithmetic mean of 2-6 MIC determinations; read-out: MIC (ug/mL) P. aeruginosa UI-18
Summary of the method: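 MIC by broth dilution following CLSI M7-A7 and M100-S18 guidelines, tested against wild-type P. aeruginosa UI-18.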

[2] = system: Acinetobacter baumanii/haemolyticus; assay: MIC determination, A. baumanii/haemolyticus; format: cell-based; conditions: Acinetobacter baumannii; multidrug-resistant clinical isolate; * = arithmetic mean of 2-6 MIC determinations; read-out: MIC (ug/mL) A. baumanii/haemolyticus
Summary of the method: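 MICs were determined by CLSI broth dilution (M7-A7, M100-S18) against a multidrug-resistant clinical isolate of Acinetobacter baumanii/haemolyticus.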

Enterobacter aerogenes = assay: MIC determination, E. aerogenes; format: cell-based; conditions: Klebsiella aerogenes; quinolone-resistant, ESBL-expressing clinical isolate; * = arithmetic mean of 2-6 MIC determinations; read-out: MIC (ug/mL) E. aerogenes
Summary of the method: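 Clinical E. aerogenes isolate, quinolone-resistant and ESBL-expressing. MIC measured in vitro by dilution testing according to CLSI guidelines (M7-A7, M100-S18).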

Escherichia coli EC-1 = assay: MIC determination, E. coli EC-1; format: cell-based; conditions: EC1, EC-1: VOGEL, * = arithmetic mean of 2-6 MIC determinations, read-out: MIC (ug/mL) E. coli EC-1
Summary of the method: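 Minimum inhibitory concentration against Escherichia coli EC-1 was determined in vitro by dilution susceptibility testing under CLSI M7-A7 and M100-S18 guidelines.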

Klebsiella pneumoniae = assay: MIC determination, K. pneumoniae; format: cell-based; conditions: ciprofloxacin-resistant, ESBL-expressing clinical isolate, * = arithmetic mean of 2-6 MIC determinations, read-out: MIC (ug/mL) K. pneumoniae
Summary of the method: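 MIC determined by broth dilution per CLSI M7-A7 and M100-S18 guidelines. Strain: ciprofloxacin-resistant, ESBL-expressing clinical isolate of K. pneumoniae.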

[3] = system: Staphylococcus aureus ATCC 29213; assay: MIC determination, S. aureus ATCC 29213; format: cell-based; conditions: ATCC29213, CLSI quality control reference strain, * = arithmetic mean of 2-6 MIC determinations, read-out: MIC (ug/mL) S. aureus ATCC 29213
Summary of the method: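 MIC was measured by dilution susceptibility testing following CLSI guidelines (M7-A7; M100-S18). The test organism is the CLSI quality-control reference strain.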

Serratia marcescens = assay: MIC determination, S. marcescens; format: cell-based; conditions: multidrug-resistant clinical isolate, * = arithmetic mean of 2-6 MIC determinations, read-out: MIC (ug/mL) S. marcescens
Experimental: MIC determinations: The in vitro antibacterial activity of compounds described in the Examples was evaluated by minimum inhibitory concentration (MIC) testing according to Clinical and Laboratory Standards Institute (CLSI, formerly NCCLS) guidelines. See: Clinical and Laboratory Standards Institute. Methods for Dilution Antimicrobial Susceptibility Tests for Bacteria that Grow Aerobically; Approved Standard-Seventh Edition. CLSI document M7-A7 [ISBN 1-56238-587-9]. Clinical and Laboratory Standards Institute, 940 West Valley Road, Suite 1400, Wayne, Pa. 19087-1898 USA, 2006; also Clinical and Laboratory Standards Institute. Performance Standards for Antimicrobial Susceptibility Testing; Eighteenth Informational Supplement. CLSI document M100-S18 [ISBN1-56238-653-0]. Clinical and Laboratory Standards Institute.
The following bacterial strains were used:
Serratia marcescens: Multidrug-resistant clinical isolate.

Row | SMILES | IC50 [1] [µM] | MIC (P. aeruginosa PAO280) [µg/mL] | MIC (P. aeruginosa UI-18) [µg/mL] | MIC [2] [µg/mL] | MIC (Enterobacter aerogenes) [µg/mL] | MIC (Escherichia coli EC-1) [µg/mL] | MIC (Klebsiella pneumoniae) [µg/mL] | MIC [3] [µg/mL] | MIC (Serratia marcescens) [µg/mL]
1 | C[C@H](O)[C@](C)(OCc1ccc(-c2ccccc2)cc1)C(=O)NO [Example 2a, (2S,3S)-2-(biphenyl-4-ylmethoxy)-N,3-dihydroxy-2-methylbutanamide] | 0.00299 | 0.5 (≈ 1.59 µM) | 32 (≈ 101 µM) | > 64 | > 64 | > 64 | > 64 | > 64 | > 64
2 | CC(C)[C@H](O)[C@](C)(OCc1ccc(-c2ccccc2)cc1)C(=O)NO [Example 3, (2S,3S)-2-(biphenyl-4-ylmethoxy)-N,3-dihydroxy-2,4-dimethylpentanamide] | 0.0716 | 32 (≈ 93.2 µM) | > 64 | > 64 | > 64 | > 64 | > 64 | > 64 | > 64
3 | O=C(NO)C(CO)(CO)OCc1ccc(-c2ccccc2)cc1 [Example 91, 2-(biphenyl-4-ylmethoxy)-N,3-dihydroxy-2-(hydroxymethyl)propanamide] | 0.0108 | 1.25 (≈ 3.94 µM) | 43 (≈ 136 µM) | > 64 | > 64 | > 64 | > 64 | > 64 | > 64
4 | C[C@@](OCc1ccc(-c2ccccc2)cc1)(C(=O)NO)[C@@H](O)c1cccnc1 [Example 12, (2S,3S)-2-(biphenyl-4-ylmethoxy)-N,3-dihydroxy-2-methyl-3-pyridin-3-ylpropanamide] | 0.00181 | 0.5 (≈ 1.32 µM) | 32 (≈ 84.6 µM) | > 64 | > 64 | > 64 | > 64 | 32 (≈ 84.6 µM) | > 64
5 | C[C@@](OCc1ccc(-c2ccccc2)cc1)(C(=O)NO)[C@@H](O)c1ccccc1 [Example 11, (2S,3S)-2-(biphenyl-4-ylmethoxy)-N,3-dihydroxy-2-methyl-3-phenylpropanamide] | 0.00509 | 8 (≈ 21.2 µM) | > 64 | > 64 | > 64 | > 64 | > 64 | 32 (≈ 84.8 µM) | > 64
6 | C[C@@H](O)[C@](C)(OCc1ccc(-c2ccccc2)cc1)C(=O)NO [Example 2b, (2S,3R)-2-(biphenyl-4-ylmethoxy)-N,3-dihydroxy-2-methylbutanamide] | 0.00435 | 0.75 (≈ 2.38 µM) | 64 (≈ 203 µM) | > 64 | > 64 | > 64 | > 64 | > 64 | > 64
7 | CCCC[C@H](O)[C@](C)(OCc1ccc(-c2ccccc2)cc1)C(=O)NO [Example 5, (2S,3S)-2-(biphenyl-4-ylmethoxy)-N,3-dihydroxy-2-methylheptanamide] | 0.0878 | 16 (≈ 44.8 µM) | > 64 | > 64 | > 64 | > 64 | > 64 | 64 (≈ 179 µM) | > 64
8 | CC[C@H](O)[C@](C)(OCc1ccc(-c2ccccc2)cc1)C(=O)NO [Example 1, (2S,3S)-2-(biphenyl-4-ylmethoxy)-N,3-dihydroxy-2-methylpentanamide] | 0.00844 | 3 (≈ 9.11 µM) | > 64 | > 64 | > 64 | > 64 | > 64 | > 64 | > 64
